# The supplement of paper PMC11208160
# Test: recombinant barcode read abundance after kanamycin selection (control-corrected) (log10(CPM+1)); higher = more efficient recombination; sequences stand for … in AGTGCAGAGAAAATCGGCCAGTTTTCTCTGCCTGCAGTCCGCATGCCGT…AGATTTATGCAGCGGACTGCCTTTCTCCCAAAGTGATAAACCGGACAGTATCATGGACCGGTTTTCCCGGTAATCCGTATTTGCAAGGTTGGTTTCACT; site = the 11-nt target
# Summary of the method: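 IS621 bridge RNA target-binding loops were paired with targets in a pooled library tested in E. coli. After co-electroporation with a donor plasmid, cells were plated in two replicates on chloramphenicol/ampicillin LB agar (control) and on chloramphenicol/ampicillin/kanamycin carrying 0.1 mM IPTG. Barcodes at recombinant junctions were counted as counts per million, averaged and control-corrected to give recombination efficiency. Values are log10(CPM+1).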
# 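Further: IS621 recombinase and bridge RNA in Escherichia coli cells.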
row,Sequence,recombinant barcode read abundance (log10)
1,GGGTCCACTTGGGTTCTAACCTGTTGCTT (site GGGTCCACTAG),1.11
2,GGGTCCACTTGGGTTCTAACCTGTTGCTT (site GGGTCCACTAT),0.714
3,GGGTTCCCTTGGGTTCTAACCTGTTGCCT (site GGGTTCCCTAG),2.11
4,GGGTTCCCTTGGGTTCTAACCTGTTGCCT (site GGGTTCGCTAG),0.031
5,GGGTTCGCTTGGGTTCTAACCTGTTGCCT (site GGGTTCCCTAG),0.362
6,GGGTTCGCTTGGGTTCTAACCTGTTGCCT (site GGGTTCGCTAG),1.93
7,GGTAAGTCTTGGGTTCTAACCTGTTGCCT (site GGTAAATCTAG),0.3
8,GGTAAGTCTTGGGTTCTAACCTGTTGCCT (site GGTAAGTCTAG),0.298
9,GGTACGACTTGGGTTCTAACCTGTTGCAG (site GGTACGACTCT),1.04
10,GGTACGACTTGGGTTCTAACCTGTTGCAG (site GGTACGCCTAT),0.336
11,GGTACGCCTTGGGTTCTAACCTGTTGCGT (site GGTACGCCTAC),0.248
12,GGTACGCCTTGGGTTCTAACCTGTTGCGT (site GGTACTCCTAC),0.213
13,GGTACTACTTGGGTTCTAACCTGTTGCCA (site ACTACTACTTG),0.0797
14,GGTACTACTTGGGTTCTAACCTGTTGCCA (site GGTACTACTTG),0.152
15,GGTACTTCTTGGGTTCTAACCTGTTGCTT (site CACCACCCTCC),0.157
16,GGTACTTCTTGGGTTCTAACCTGTTGCTT (site GGTACTTCTAA),0.152
17,GGTAGGCCTTGGGTTCTAACCTGTTGCTT (site GGTAGATCTAA),0.0963
18,GGTAGGCCTTGGGTTCTAACCTGTTGCTT (site GGTAGGCCTAA),0.0588
19,GGTATAGCTTGGGTTCTAACCTGTTGCCT (site GGTAAAGCTAG),0.14
20,GGTATAGCTTGGGTTCTAACCTGTTGCCT (site GGTATAGCTAG),0.827
21,GGTCACCCTTGGGTTCTAACCTGTTGCGG (site GGTAACCCTCC),0.0652
22,GGTCACCCTTGGGTTCTAACCTGTTGCGG (site GGTCACCCTCC),1.75

row,Sequence,recombinant barcode read abundance (log10)
1,GGTCACCCTTGGGTTCTAACCTGTTGCGG (site GGTGACCCTCC),0.0199
2,GGTCACCCTTGGGTTCTAACCTGTTGCGG (site GGTTACCCTCC),0.16
3,GGTCATCCTTGGGTTCTAACCTGTTGCCT (site GGTCATACTAG),0.127
4,GGTCATCCTTGGGTTCTAACCTGTTGCCT (site GGTCATCCTAG),1.17
5,GGTCATCCTTGGGTTCTAACCTGTTGCCT (site GGTCATGCTAG),0.0238
6,GGTCATCCTTGGGTTCTAACCTGTTGCCT (site GGTCATTCTAG),0.0693
7,GGTCCAACTTGGGTTCTAACCTGTTGCCT (site GGTCAAACTAG),0.1
8,GGTCCAACTTGGGTTCTAACCTGTTGCCT (site GGTCCAACTAG),0.32
9,GGTCCAACTTGGGTTCTAACCTGTTGCCT (site GGTCGAACTAG),0.0176
10,GGTCCAACTTGGGTTCTAACCTGTTGCCT (site GGTCTAACTAG),0.159
11,GGTCCATCTTGGGTTCTAACCTGTTGCCT (site GATCCATCTAG),0
12,GGTCCATCTTGGGTTCTAACCTGTTGCCT (site GCTCCATCTAG),0.0427
13,GGTCCATCTTGGGTTCTAACCTGTTGCCT (site GGTCCATCTAG),0.161
14,GGTCCATCTTGGGTTCTAACCTGTTGCCT (site GTTCCATCTAG),0.165
15,GGTCCGGCTTGGGTTCTAACCTGTTGCGG (site GATCCGTCTCC),0.0623
16,GGTCCGGCTTGGGTTCTAACCTGTTGCGG (site GGTCCGGCTCC),1.61
17,GGTCCTGCTTGGGTTCTAACCTGTTGCCT (site AGTCCTGCTAG),0.366
18,GGTCCTGCTTGGGTTCTAACCTGTTGCCT (site CGTCCTGCTAG),0.0632
19,GGTCCTGCTTGGGTTCTAACCTGTTGCCT (site GGTCCTGCTAG),0.976
20,GGTCCTGCTTGGGTTCTAACCTGTTGCCT (site TGTCCTGCTAG),0.174
21,GGTCGACCTTGGGTTCTAACCTGTTGCCT (site AGTCGACCTAG),0.0754
22,GGTCGACCTTGGGTTCTAACCTGTTGCCT (site CGTCGACCTAG),0.0694

row,Sequence,recombinant barcode read abundance (log10)
1,GGTCGACCTTGGGTTCTAACCTGTTGCCT (site GGTCGACCTAG),0.898
2,GGTCGACCTTGGGTTCTAACCTGTTGCCT (site TGTCGACCTAG),0.175
3,GGTCGCCCTTGGGTTCTAACCTGTTGCGT (site GGTCGCCCTAC),1.43
4,GGTCGCCCTTGGGTTCTAACCTGTTGCGT (site TCGTAGACTTA),0.0116
5,GGTCGGGCTTGGGTTCTAACCTGTTGCCT (site GGTCGAGCTAG),0.132
6,GGTCGGGCTTGGGTTCTAACCTGTTGCCT (site GGTCGCGCTAG),0.315
7,GGTCGGGCTTGGGTTCTAACCTGTTGCCT (site GGTCGGGCTAG),0.401
8,GGTCGGGCTTGGGTTCTAACCTGTTGCCT (site GGTCGTGCTAG),0.0723
9,GGTGGGTCTTGGGTTCTAACCTGTTGCGT (site GGTGGGTCTAA),0.97
10,GGTGGGTCTTGGGTTCTAACCTGTTGCGT (site GGTGGGTCTAC),3.03
11,GGTGGGTCTTGGGTTCTAACCTGTTGCGT (site GGTGGGTCTAG),1.1
12,GGTGGGTCTTGGGTTCTAACCTGTTGCGT (site GGTGGGTCTAT),1.93
13,GGTTACACTTGGGTTCTAACCTGTTGCCT (site GGATACACTAG),0.0395
14,GGTTACACTTGGGTTCTAACCTGTTGCCT (site GGTTACACTAG),1.26
15,GGTTGTTCTTGGGTTCTAACCTGTTGCCT (site GGTTGTTCTAG),0.19
16,GGTTGTTCTTGGGTTCTAACCTGTTGCCT (site TGTTGTTCTAG),0.0976
17,GTAAACACTTGGGTTCTAACCTGTTGCAG (site GTAAACACTCT),0.514
18,GTAAACACTTGGGTTCTAACCTGTTGCAG (site GTAGACACTCG),0.113
19,GTAACCTCTTGGGTTCTAACCTGTTGCTC (site GTAACCTCTGA),2.05
20,GTAACCTCTTGGGTTCTAACCTGTTGCTC (site GTCACCTCTTA),0.00986
21,GTAACTACTTGGGTTCTAACCTGTTGCTC (site ACGTAACCTAG),0.0897
22,GTAACTACTTGGGTTCTAACCTGTTGCTC (site GTAACTACTGA),0.475

row,Sequence,recombinant barcode read abundance (log10)
1,GTAAGAACTTGGGTTCTAACCTGTTGCTT (site GTAAGAACTAA),0.629
2,GTAAGAACTTGGGTTCTAACCTGTTGCTT (site GTAAGCACTAA),0.0763
3,GTAAGAACTTGGGTTCTAACCTGTTGCTT (site GTAAGGACTAA),0.0891
4,GTAAGAACTTGGGTTCTAACCTGTTGCTT (site GTAAGTACTAA),0.03
5,GTAAGCACTTGGGTTCTAACCTGTTGCTT (site GTAAGAACTAA),0.0561
6,GTAAGCACTTGGGTTCTAACCTGTTGCTT (site GTAAGCACTAA),0.18
7,GTAAGCACTTGGGTTCTAACCTGTTGCTT (site GTAAGGACTAA),0.0207
8,GTAAGCACTTGGGTTCTAACCTGTTGCTT (site GTAAGTACTAA),0.242
9,GTAAGCTCTTGGGTTCTAACCTGTTGCCT (site ATAAGCTCTAG),1.34
10,GTAAGCTCTTGGGTTCTAACCTGTTGCCT (site CTAAGCTCTAG),0.349
11,GTAAGCTCTTGGGTTCTAACCTGTTGCCT (site GTAAGCTCTAG),2.15
12,GTAAGCTCTTGGGTTCTAACCTGTTGCCT (site TTAAGCTCTAG),0.932
13,GTAAGTACTTGGGTTCTAACCTGTTGCGG (site AGAAGTACTCC),0
14,GTAAGTACTTGGGTTCTAACCTGTTGCGG (site GTAAGTACTCC),2.06
15,GTACAAGCTTGGGTTCTAACCTGTTGCCT (site AGGAGTCCTCT),0.102
16,GTACAAGCTTGGGTTCTAACCTGTTGCCT (site GTACAAGCTAG),1.08
17,GTACCGCCTTGGGTTCTAACCTGTTGCCT (site GTACAGCCTAG),0.483
18,GTACCGCCTTGGGTTCTAACCTGTTGCCT (site GTACCGCCTAG),1.01
19,GTACCGCCTTGGGTTCTAACCTGTTGCCT (site GTACGGCCTAG),0.122
20,GTACCGCCTTGGGTTCTAACCTGTTGCCT (site GTACTGCCTAG),0.29
